{"source": "ChEMBL document CHEMBL4043168", "about": "“The design and SAR of a novel series of 2-aminopyridine based LRRK2 inhibitors” (Bioorg Med Chem Lett, 2017)", "key": {"[1]": {"target": "Leucine-rich repeat serine/threonine-protein kinase 2 (Homo sapiens, UniProt Q5S007, G2019S)", "assay": "Inhibition LRRK2 G2019S mutant (unknown origin) Ser935 phosphorylation in HEK293 cells", "assay_type": "cell-based"}, "[2]": {"target": "Proto-oncogene tyrosine-protein kinase Src (Homo sapiens) (UniProt P12931)", "assay": "Inhibition of SRC ATP binding site (QGAKFPIKWTAPEAALYGR) in human PBMC at 0.1 uM"}, "[3]": {"target": "Tyrosine-protein kinase ABL1 (Homo sapiens) (UniProt P00519)", "assay": "Inhibition of ABL labeling at activation Loop (LMTGDTYTAHAGAKFPIK) in human PBMC at 1 uM"}, "[4]": {"target": "5'-AMP-activated protein kinase catalytic subunit alpha-1 (Homo sapiens) (UniProt Q13131)", "assay": "Inhibition of AMPKa1 labeling at conserved Lys2 (DLKPENVLLDAHMNAK) in human PBMC at 1 uM"}, "[5]": {"target": "Cyclin-dependent kinase 2 (Homo sapiens) (UniProt P24941)", "assay": "Inhibition of CDK2 labeling at conserved Lys2 (DLKPQNLLINTEGAIK) in human PBMC at 1 uM"}, "[6]": {"target": "Eukaryotic elongation factor 2 kinase (Homo sapiens) (UniProt O00418)", "sequence (O00418 whole entry)": "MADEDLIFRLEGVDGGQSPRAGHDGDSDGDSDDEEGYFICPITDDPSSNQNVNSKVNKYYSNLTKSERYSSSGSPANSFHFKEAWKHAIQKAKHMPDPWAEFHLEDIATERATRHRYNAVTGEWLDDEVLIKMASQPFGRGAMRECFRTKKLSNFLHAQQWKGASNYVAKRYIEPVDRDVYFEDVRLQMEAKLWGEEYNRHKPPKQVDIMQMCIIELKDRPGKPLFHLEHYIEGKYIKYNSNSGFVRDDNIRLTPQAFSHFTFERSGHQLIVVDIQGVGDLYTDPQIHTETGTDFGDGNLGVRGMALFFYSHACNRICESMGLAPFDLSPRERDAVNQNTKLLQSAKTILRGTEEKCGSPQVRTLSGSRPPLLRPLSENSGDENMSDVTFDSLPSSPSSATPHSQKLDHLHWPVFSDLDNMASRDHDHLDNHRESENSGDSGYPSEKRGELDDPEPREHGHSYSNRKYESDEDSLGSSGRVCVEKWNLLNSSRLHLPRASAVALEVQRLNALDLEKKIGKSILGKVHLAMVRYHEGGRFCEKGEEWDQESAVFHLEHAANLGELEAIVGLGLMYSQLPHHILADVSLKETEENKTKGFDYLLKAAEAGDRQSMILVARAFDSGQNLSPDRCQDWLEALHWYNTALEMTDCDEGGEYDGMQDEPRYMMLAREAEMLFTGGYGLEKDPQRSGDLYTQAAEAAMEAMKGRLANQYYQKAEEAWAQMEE", "assay": "Inhibition of eEF2K ATP binding site (YIKYNSNSGFVR) in human PBMC at 1 uM"}, "[7]": {"target": "G protein-coupled receptor kinase 6 (Homo sapiens) (UniProt P43250)", "assay": "Inhibition of GPRK6 conserved Lys2 (DLKPENILLDDHGHIR) in human PBMC at 1 uM"}, "[8]": {"target": "Serine/threonine-protein kinase TBK1 (Homo sapiens) (UniProt Q9UHD2)", "assay": "Inhibition of TBK1 conserved Lys2 (DIKPGNIMR) in human PBMC at 1 uM"}, "[9]": {"target": "Mitogen-activated protein kinase 9 (Homo sapiens) (UniProt P45984)", "sequence (P45984 whole entry, looked up)": "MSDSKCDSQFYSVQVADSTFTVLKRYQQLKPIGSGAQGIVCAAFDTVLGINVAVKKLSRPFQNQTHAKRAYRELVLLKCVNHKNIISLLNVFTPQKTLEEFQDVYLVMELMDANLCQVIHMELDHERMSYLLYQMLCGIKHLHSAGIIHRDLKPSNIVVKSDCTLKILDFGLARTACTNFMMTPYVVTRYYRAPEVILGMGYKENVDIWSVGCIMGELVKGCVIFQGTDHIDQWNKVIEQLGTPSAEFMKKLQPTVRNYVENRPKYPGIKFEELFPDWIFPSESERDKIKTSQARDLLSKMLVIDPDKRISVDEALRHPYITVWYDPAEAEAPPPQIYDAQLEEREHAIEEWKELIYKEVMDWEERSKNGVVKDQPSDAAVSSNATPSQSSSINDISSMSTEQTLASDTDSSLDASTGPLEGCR", "assay": "Inhibition of JNK2 conserved Lys2 (DLKPSNIVVK) in human PBMC at 1 uM"}, "[10]": {"target": "Serine/threonine-protein kinase 10 (Homo sapiens) (UniProt O94804)", "sequence (O94804 whole entry, looked up)": "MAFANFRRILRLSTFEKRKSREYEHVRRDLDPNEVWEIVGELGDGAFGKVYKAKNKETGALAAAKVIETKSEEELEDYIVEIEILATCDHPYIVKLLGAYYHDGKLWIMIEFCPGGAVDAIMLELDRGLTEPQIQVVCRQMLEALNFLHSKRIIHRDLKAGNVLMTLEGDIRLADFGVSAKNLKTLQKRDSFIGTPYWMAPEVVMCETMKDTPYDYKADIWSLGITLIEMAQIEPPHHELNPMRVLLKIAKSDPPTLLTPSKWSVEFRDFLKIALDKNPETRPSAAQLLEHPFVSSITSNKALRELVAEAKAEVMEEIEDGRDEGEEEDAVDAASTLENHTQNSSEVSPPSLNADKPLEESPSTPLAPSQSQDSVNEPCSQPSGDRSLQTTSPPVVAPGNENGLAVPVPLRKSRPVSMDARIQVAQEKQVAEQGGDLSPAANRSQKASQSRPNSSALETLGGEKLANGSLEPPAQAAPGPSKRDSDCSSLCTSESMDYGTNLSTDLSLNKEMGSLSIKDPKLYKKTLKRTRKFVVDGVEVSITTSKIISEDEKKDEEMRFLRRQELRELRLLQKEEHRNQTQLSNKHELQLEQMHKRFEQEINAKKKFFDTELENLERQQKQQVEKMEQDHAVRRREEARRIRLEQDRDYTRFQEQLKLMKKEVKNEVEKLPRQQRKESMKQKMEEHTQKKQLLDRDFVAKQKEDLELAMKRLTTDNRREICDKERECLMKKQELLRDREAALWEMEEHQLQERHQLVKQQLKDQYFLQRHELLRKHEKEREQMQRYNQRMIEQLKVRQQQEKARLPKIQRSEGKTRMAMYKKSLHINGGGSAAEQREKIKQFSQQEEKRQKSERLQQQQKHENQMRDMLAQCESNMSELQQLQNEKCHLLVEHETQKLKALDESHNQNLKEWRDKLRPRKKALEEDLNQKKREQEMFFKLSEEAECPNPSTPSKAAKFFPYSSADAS", "assay": "Inhibition of LOK conserved Lys1 (NKETGALAAAKVIETK) in human PBMC at 1 uM"}, "[11]": {"target": "Mitogen-activated protein kinase kinase kinase 1 (Homo sapiens) (UniProt Q13233)", "sequence (Q13233 whole entry)": "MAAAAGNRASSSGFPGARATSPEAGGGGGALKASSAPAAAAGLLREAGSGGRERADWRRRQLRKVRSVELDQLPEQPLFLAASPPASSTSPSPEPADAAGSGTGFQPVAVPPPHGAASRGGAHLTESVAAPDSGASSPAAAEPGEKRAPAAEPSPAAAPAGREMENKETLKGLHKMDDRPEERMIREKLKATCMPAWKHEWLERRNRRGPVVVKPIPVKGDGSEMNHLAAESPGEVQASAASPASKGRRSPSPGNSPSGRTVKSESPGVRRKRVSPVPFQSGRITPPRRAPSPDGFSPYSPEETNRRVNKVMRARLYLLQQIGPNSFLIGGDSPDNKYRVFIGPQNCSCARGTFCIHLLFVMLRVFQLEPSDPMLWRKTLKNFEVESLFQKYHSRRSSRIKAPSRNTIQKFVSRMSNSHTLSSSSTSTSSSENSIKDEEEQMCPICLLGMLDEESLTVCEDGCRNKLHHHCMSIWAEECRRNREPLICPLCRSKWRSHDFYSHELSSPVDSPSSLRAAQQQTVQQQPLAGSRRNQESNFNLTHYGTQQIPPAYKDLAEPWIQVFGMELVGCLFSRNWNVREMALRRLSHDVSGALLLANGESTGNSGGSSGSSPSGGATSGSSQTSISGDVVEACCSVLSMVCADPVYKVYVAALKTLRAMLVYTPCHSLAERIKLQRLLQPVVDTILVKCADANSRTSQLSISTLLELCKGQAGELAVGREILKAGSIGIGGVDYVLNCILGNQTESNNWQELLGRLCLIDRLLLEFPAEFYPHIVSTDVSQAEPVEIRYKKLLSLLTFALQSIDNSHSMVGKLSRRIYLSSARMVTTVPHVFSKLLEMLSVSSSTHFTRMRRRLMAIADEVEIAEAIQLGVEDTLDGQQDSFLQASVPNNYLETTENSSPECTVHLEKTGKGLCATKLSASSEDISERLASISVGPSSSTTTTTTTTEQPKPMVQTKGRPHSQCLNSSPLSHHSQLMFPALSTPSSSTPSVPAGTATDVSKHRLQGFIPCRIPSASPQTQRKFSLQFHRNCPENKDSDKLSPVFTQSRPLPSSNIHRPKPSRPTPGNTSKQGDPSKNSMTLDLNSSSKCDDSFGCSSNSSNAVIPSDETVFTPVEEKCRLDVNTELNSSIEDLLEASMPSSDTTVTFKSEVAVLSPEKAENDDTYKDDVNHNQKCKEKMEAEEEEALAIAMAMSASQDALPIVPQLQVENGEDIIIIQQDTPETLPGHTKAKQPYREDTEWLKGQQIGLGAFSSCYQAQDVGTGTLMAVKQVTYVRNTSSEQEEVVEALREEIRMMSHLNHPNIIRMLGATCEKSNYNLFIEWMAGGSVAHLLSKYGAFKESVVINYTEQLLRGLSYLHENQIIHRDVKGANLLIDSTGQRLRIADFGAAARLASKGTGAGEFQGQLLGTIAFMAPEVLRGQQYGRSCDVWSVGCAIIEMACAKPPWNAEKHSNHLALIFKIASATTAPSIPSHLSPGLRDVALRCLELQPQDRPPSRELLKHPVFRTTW", "assay": "Inhibition of MAP3K1 conserved Lys2 (DVKGANLLIDSTGQR) in human PBMC at 1 uM"}, "[12]": {"target": "Mitogen-activated protein kinase 13 (Homo sapiens) (UniProt O15264)", "assay": "Inhibition of p38d conserved Lys2 (DLKPGNLAVNEDCELK) in human PBMC at 1 uM"}, "[13]": {"target": "Mitogen-activated protein kinase 12 (Homo sapiens) (UniProt P53778)", "sequence (P53778 whole entry)": "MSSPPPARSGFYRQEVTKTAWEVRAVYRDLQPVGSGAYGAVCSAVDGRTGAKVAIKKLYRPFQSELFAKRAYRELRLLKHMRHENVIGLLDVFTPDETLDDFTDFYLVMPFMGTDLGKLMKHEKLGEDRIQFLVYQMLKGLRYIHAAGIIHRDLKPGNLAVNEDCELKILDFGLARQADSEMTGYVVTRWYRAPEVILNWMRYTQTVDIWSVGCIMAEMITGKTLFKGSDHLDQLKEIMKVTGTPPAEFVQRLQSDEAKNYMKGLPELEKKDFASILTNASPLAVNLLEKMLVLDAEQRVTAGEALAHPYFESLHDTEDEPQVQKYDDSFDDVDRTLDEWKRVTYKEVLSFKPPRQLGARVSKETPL", "assay": "Inhibition of p38g conserved Lys2 (DLKPGNLAVNEDCELK) in human PBMC at 1 uM"}, "[14]": {"species": "Homo sapiens", "assay": "Inhibition of p70S6K conserved Lys2 (DLKPENIMLNHQGHVK) in human PBMC at 1 uM"}, "[15]": {"target": "Phosphatidylinositol 4-kinase beta (Homo sapiens) (UniProt Q9UBF8)", "assay": "Inhibition of PI4KB ATP binding site (VPHTQAVVLNSKDK) in human PBMC at 1 uM"}, "[16]": {"target": "Phosphatidylinositol 4,5-bisphosphate 3-kinase catalytic subunit beta isoform (Homo sapiens) (UniProt P42338)", "assay": "Inhibition of PIK3CB ATP binding site (VFGEDSVGVIFKNGDDLRQDMLTLQMLR) in human PBMC at 1 uM"}, "[17]": {"target": "Serine/threonine-protein kinase PLK1 (Homo sapiens) (UniProt P53350)", "assay": "Inhibition of PLK1 conserved Lys1 (CFEISDADTKEVFAGKIVPK) in human PBMC at 1 uM"}, "[18]": {"target": "Ribosomal protein S6 kinase alpha-3 (Homo sapiens) (UniProt P51812)", "assay": "Inhibition of RSK2 domain1 activation Loop (LTDFGLSKESIDHEKK) in human PBMC at 1 uM"}, "[19]": {"target": "Ribosomal protein S6 kinase delta-1 (Homo sapiens) (UniProt Q96S38)", "assay": "Inhibition of RSKL1 domain1 Protein Kinase Domain (VLGVIDKVLLVMDTR) in human PBMC at 1 uM"}, "[20]": {"target": "Serine/threonine-protein kinase TAO2 (Homo sapiens) (UniProt Q9UL54)", "assay": "Inhibition of TAO2 conserved Lys2 (DVKAGNILLSEPGLVK) in human PBMC at 1 uM"}, "[21]": {"target": "Serine/threonine-protein kinase WNK3 (Homo sapiens) (UniProt Q9BYP7)", "assay": "Inhibition of Wnk3 conserved Lys2 (DLKCDNIFITGPTGSVK) in human PBMC at 1 uM"}, "[22]": {"target": "Serine/threonine-protein kinase 32C (Homo sapiens) (UniProt Q86UX6)", "sequence (Q86UX6 whole entry)": "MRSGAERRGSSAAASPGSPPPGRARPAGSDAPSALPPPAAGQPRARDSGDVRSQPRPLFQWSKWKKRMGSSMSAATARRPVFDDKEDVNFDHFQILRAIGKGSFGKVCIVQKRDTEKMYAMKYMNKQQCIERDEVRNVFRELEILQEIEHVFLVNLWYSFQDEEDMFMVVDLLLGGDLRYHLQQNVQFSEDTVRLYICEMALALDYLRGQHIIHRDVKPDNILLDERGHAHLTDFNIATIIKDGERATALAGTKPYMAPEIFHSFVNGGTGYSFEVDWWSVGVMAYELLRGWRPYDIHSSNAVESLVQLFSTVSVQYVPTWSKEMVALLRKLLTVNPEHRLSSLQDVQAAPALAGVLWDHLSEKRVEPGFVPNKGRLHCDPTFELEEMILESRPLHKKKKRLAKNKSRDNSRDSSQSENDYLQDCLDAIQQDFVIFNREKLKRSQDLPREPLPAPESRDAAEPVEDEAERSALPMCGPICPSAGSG", "assay": "Inhibition of YANK3 conserved Lys2 (DVKPDNILLDER) in human PBMC at 1 uM"}, "[23]": {"target": "RAC-beta serine/threonine-protein kinase (Homo sapiens) (UniProt P31751)", "sequence (P31751 whole entry)": "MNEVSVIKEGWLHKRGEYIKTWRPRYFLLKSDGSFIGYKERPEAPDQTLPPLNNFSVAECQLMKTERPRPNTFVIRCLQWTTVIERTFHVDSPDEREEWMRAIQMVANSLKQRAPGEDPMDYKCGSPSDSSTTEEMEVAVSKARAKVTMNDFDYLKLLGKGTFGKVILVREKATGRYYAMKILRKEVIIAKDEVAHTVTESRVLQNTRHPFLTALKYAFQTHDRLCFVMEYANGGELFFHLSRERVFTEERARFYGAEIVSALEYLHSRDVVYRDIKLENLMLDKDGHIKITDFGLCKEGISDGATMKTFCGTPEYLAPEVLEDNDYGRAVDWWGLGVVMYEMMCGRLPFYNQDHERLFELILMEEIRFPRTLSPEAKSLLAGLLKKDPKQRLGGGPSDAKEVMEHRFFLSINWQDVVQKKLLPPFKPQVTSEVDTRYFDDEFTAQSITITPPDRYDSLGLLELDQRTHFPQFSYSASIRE", "assay": "Inhibition of AKT2 labeling at ATP binding site (GTFGKVILVR) in human PBMC at 0.1 uM"}, "[24]": {"target": "Mitogen-activated protein kinase 3 (Homo sapiens) (UniProt P27361)", "assay": "Inhibition of Erk1 ATP binding site (DLKPSNLLINTTCDLK) in human PBMC at 0.1 uM"}, "[25]": {"target": "Mitogen-activated protein kinase kinase kinase kinase 5 (Homo sapiens) (UniProt Q9Y4K4)", "assay": "Inhibition of KHS1 conserved Lys1 (NVHTGELAAVKIIK) in human PBMC at 0.1 uM"}, "[26]": {"target": "Kinase suppressor of Ras 2 (Homo sapiens) (UniProt Q6VAB6)", "assay": "Inhibition of KSR2 activation Loop (SKNVFYDNGK) in human PBMC at 0.1 uM"}, "[27]": {"target": "Serine/threonine-protein kinase LATS2 (Homo sapiens) (UniProt Q9NRM7)", "assay": "Inhibition of LATS2 conserved Lys2 (DIKPDNILIDLDGHIK) in human PBMC at 0.1 uM"}, "[28]": {"target": "Mitogen-activated protein kinase kinase kinase 1 (Homo sapiens) (UniProt Q13233)", "assay": "Inhibition of MAP3K1 conserved Lys2 (DVKGANLLIDSTGQR) in human PBMC at 0.1 uM"}, "[29]": {"target": "Ribosomal protein S6 kinase alpha-5 (Homo sapiens) (UniProt O75582)", "assay": "Inhibition of MSK1 domain1 conserved Lys2 (DIKLENILLDSNGHVVLTDFGLSK) in human PBMC at 0.1 uM"}, "[30]": {"target": "PAN2-PAN3 deadenylation complex subunit PAN3 (Homo sapiens) (UniProt Q58A45)", "assay": "Inhibition of PAN3 Protein Kinase Domain (VMDPTKILITGK) in human PBMC at 0.1 uM"}, "[31]": {"target": "STE20-like serine/threonine-protein kinase (Homo sapiens) (UniProt Q9H2G2)", "assay": "Inhibition of SLK conserved Lys2 (DLKAGNILFTLDGDIK) in human PBMC at 0.1 uM"}, "[32]": {"target": "Myosin light chain kinase, smooth muscle (Homo sapiens) (UniProt Q15746)", "assay": "Inhibition of smMLCK conserved Lys2 (QGIVHLDLKPENIMCVNK) in human PBMC at 0.1 uM"}}}
{"smiles": "CC(C)n1cc(-c2cc(-c3ccc(CN4CCOCC4)cc3)cnc2N)nn1", "values": [{"measurement": "IC50", "setting": "[1]", "result": 920, "unit": "nM"}, {"measurement": "inhibition", "setting": "[2]", "result": -4.4, "unit": "%"}, {"measurement": "inhibition", "setting": "[3]", "result": 34.8, "unit": "%"}, {"measurement": "inhibition", "setting": "[4]", "result": 17.5, "unit": "%"}, {"measurement": "inhibition", "setting": "[5]", "result": 16.8, "unit": "%"}, {"measurement": "inhibition", "setting": "[6]", "result": -6.7, "unit": "%"}, {"measurement": "inhibition", "setting": "[7]", "result": -10, "unit": "%"}, {"measurement": "inhibition", "setting": "[8]", "result": 11, "unit": "%"}, {"measurement": "inhibition", "setting": "[9]", "result": 23.9, "unit": "%"}, {"measurement": "inhibition", "setting": "[10]", "result": 32.2, "unit": "%"}, {"measurement": "inhibition", "setting": "[11]", "result": 83.3, "unit": "%"}, {"measurement": "inhibition", "setting": "[12]", "result": 14, "unit": "%"}, {"measurement": "inhibition", "setting": "[13]", "result": 14, "unit": "%"}, {"measurement": "inhibition", "setting": "[14]", "result": 6.9, "unit": "%"}, {"measurement": "inhibition", "setting": "[15]", "result": 2.2, "unit": "%"}, {"measurement": "inhibition", "setting": "[16]", "result": 21.2, "unit": "%"}, {"measurement": "inhibition", "setting": "[17]", "result": 16, "unit": "%"}, {"measurement": "inhibition", "setting": "[18]", "result": 22, "unit": "%"}, {"measurement": "inhibition", "setting": "[19]", "result": 4.7, "unit": "%"}, {"measurement": "inhibition", "setting": "[20]", "result": -3.8, "unit": "%"}, {"measurement": "inhibition", "setting": "[21]", "result": 2.2, "unit": "%"}, {"measurement": "inhibition", "setting": "[22]", "result": -2.1, "unit": "%"}, {"measurement": "inhibition", "setting": "[23]", "result": 17.1, "unit": "%"}, {"measurement": "inhibition", "setting": "[24]", "result": -6.4, "unit": "%"}, {"measurement": "inhibition", "setting": "[25]", "result": 14.7, "unit": "%"}, {"measurement": "inhibition", "setting": "[26]", "result": 20.4, "unit": "%"}, {"measurement": "inhibition", "setting": "[27]", "result": 3, "unit": "%"}, {"measurement": "inhibition", "setting": "[28]", "result": 29.6, "unit": "%"}, {"measurement": "inhibition", "setting": "[29]", "result": 33.6, "unit": "%"}, {"measurement": "inhibition", "setting": "[30]", "result": 6.2, "unit": "%"}, {"measurement": "inhibition", "setting": "[31]", "result": 24.4, "unit": "%"}, {"measurement": "inhibition", "setting": "[32]", "result": 11.3, "unit": "%"}]}
